According to BindingDB's records for doi:10.1021/jacs.1c08060 (The University of Arizona, 2021):

How the values were obtained:
[1] = biological target: Replicase polyprotein 1ab (Severe acute respiratory syndrome coronavirus 2, UniProt P0DTD1); assay: FRET-based enzymatic assay
[2] = biological target: Procathepsin L (Homo sapiens, UniProt P07711); assay: FRET-based enzymatic assay
Sequence of Procathepsin L (P07711 whole entry): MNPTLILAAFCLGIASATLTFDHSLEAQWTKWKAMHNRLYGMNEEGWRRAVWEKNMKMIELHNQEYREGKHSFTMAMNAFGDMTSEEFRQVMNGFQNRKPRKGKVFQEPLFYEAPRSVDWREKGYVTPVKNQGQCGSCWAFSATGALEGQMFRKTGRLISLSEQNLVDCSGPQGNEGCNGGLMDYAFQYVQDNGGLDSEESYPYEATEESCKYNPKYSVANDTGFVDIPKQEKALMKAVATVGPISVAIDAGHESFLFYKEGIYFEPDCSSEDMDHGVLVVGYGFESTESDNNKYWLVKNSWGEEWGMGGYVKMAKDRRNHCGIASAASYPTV

| SMILES | IC50 [1] | IC50 [2] |
| --- | --- | --- |
| C[C@H](NC(=O)[C@@H](c1cnccn1)N(C(=O)CCl)c1ccc(-c2ccccc2)cc1)c1ccccc1 [Jun9-57-3R] | 0.05 µM | – |
| C[C@H](NC(=O)[C@@H](c1cccnc1)N(C(=O)C(Br)Br)c1ccc(-c2ccccc2)cc1)c1ccc(Br)cc1 [Jun9-89-2R] | 0.08 µM | – |
| C[C@H](NC(=O)C(c1cccnc1)N(C(=O)/C=C/CN(C)C)c1ccc(-c2ccccc2)cc1)c1ccccc1 (stereo not given in full) [Jun10-31-4] | > 20 µM | – |
| C[C@H](NC(=O)C(c1cccnc1)N(C(=O)CN=[N+]=[N-])c1ccc(-c2ccccc2)cc1)c1ccccc1 (stereo not given in full) [Jun9-61-1] | > 20 µM | – |
| C[C@H](NC(=O)C(c1cccnc1)N(C(=O)C(C)(Cl)Cl)c1ccc(-c2ccccc2)cc1)c1ccccc1 (stereo not given in full) [Jun9-76-4] | > 20 µM | – |
| C[C@H](NC(=O)C(c1cnccn1)N(C(=O)CCl)c1ccc(-c2ccccc2)cc1)c1ccccc1 (stereo not given in full) [Jun9-59-1] | 0.12 µM | – |
| O=C(NC1CCCCC1)C(c1cccnc1)N(C(=O)CCl)c1ccc(-c2ccccc2)cc1 (stereo not given) [Jun9-55-2] | 0.33 µM | – |
| C[C@H](NC(=O)C(c1cccnc1)N(C(=O)C(F)(F)Cl)c1ccc(-c2ccccc2)cc1)c1ccccc1 (stereo not given in full) [Jun9-77-2] | > 20 µM | – |
| COc1cccc2[nH]c(C(=O)N[C@@H](CC(C)C)C(=O)N[C@@H](C[C@@H]3CCNC3=O)C(=O)CO)cc12 [WO2005113580-Ex-02] | – | 0.146 µM |
| CCCCC1CCC(OC(=O)N[C@@H](CC(C)C)C(=O)N[C@H](C=O)C[C@@H]2CCNC2=O)CC1 (stereo not given in full) [Advanced SARS-CoV-2 Inhibitor 6e] | 0.01 µM | – |
| C=CC(=O)N(c1ccc(-c2ccccc2)cc1)C(C(=O)N[C@@H](C)c1ccccc1)c1cccnc1 (stereo not given in full) [Jun9-51-3] | > 20 µM | – |
| CC(OC(C)(C)C)[C@H](NC(=O)OCc1ccccc1)C(=O)N[C@@H](CC1CCCCC1)C(=O)N[C@H](C=O)C[C@@H]1CCNC1=O (stereo not given in full) [jm5b01461, Compound 45] | – | 0.0012 µM |
| CC(C)C[C@H](NC(=O)OCc1ccccc1)C(=O)N[C@@H](CC1CCNC1=O)C(O)S(=O)(=O)O (stereo not given in full) [GC376] | – | 0.00099 µM |
| C[C@H](NC(=O)C(c1cccnc1)N(C(=O)C(Cl)(Cl)Cl)c1ccc(-c2ccccc2)cc1)c1ccccc1 (stereo not given in full) [Jun9-72-4] | > 20 µM | – |
| C[C@H](Cl)C(=O)N(c1ccc(-c2ccccc2)cc1)C(C(=O)N[C@@H](C)c1ccccc1)c1cccnc1 (stereo not given in full) [Jun9-77-1] | > 20 µM | – |
| CCOC(=O)/C=C/C(=O)N(c1ccc(-c2ccccc2)cc1)C(C(=O)N[C@@H](C)c1ccccc1)c1cccnc1 (stereo not given in full) [Jun9-72-3] | > 20 µM | – |
| C[C@H](NC(=O)C(c1cccnc1)N(C(=O)CF)c1ccc(-c2ccccc2)cc1)c1ccccc1 (stereo not given in full) [Jun9-61-4] | > 20 µM | – |
| O=C(NC1CCCC1)C(c1cccnc1)N(C(=O)CCl)c1ccc(-c2ccccc2)cc1 (stereo not given) [Jun9-55-1] | 0.3 µM | – |
| C=CC(=O)N(c1ccc(-c2ccccc2)cc1)C(C(=O)NCc1ccccc1)c1cccnc1 (stereo not given) [Jun10-15-2] | > 20 µM | – |
| O=C(NC1CC1)C(c1cccnc1)N(C(=O)CCl)c1ccc(-c2ccccc2)cc1 (stereo not given) [Jun9-57-2] | 0.22 µM | – |
